Experimental data from US20150342234A1, “Steviol Glycoside Compositions Sensory Properties” (Evolva SA, priority 2012, published 2015).

Legend:
[1] = system: panel of 9 tasters (8 trained sensory panellists and 1 Evolve employee); experiment: Sensory evaluation by rapid profiling protocol, blinded samples, two replicates; assay type: in vivo; conditions: for Sweetness build Fl. mean score / Sweetness onset Fl. mean score: after 1st sip, mean of Rep 1 and Rep 2, 0.0385% w/v in mineral water; for Sweetness build Fl. mean score / Sweetness onset Fl. mean score / Acid At. mean score / Artificial sweetness At. mean score / Bitter At. mean score / Overall Sweetness At. mean score / liquorice At. mean score / Acid Fl. mean score / Artificial sweetness Fl. mean score / Bitter Fl. mean score / Liquorice FL mean score / Overall Sweetness Fl. mean score / Body/ thickness Mf. mean score / Mouth coating Mf. mean score / Mouth drying Mf. mean score / Mouth watering Mf. mean score / Tingling Mf. mean score: 0-100 scale; for Acid At. mean score / Artificial sweetness At. mean score / Bitter At. mean score / Overall Sweetness At. mean score / liquorice At. mean score: aftertaste; for Acid At. mean score / Artificial sweetness At. mean score / Bitter At. mean score / Overall Sweetness At. mean score / liquorice At. mean score / Acid Fl. mean score / Artificial sweetness Fl. mean score / Bitter Fl. mean score / Liquorice FL mean score / Overall Sweetness Fl. mean score / Body/ thickness Mf. mean score / Mouth coating Mf. mean score / Mouth drying Mf. mean score / Mouth watering Mf. mean score / Tingling Mf. mean score: mean of 2 replicates, 0.0385% w/v; for Acid Fl. mean score / Artificial sweetness Fl. mean score / Bitter Fl. mean score / Liquorice FL mean score / Overall Sweetness Fl. mean score: flavor; for Acid Fl. mean score / Artificial sweetness Fl. mean score / Bitter Fl. mean score / Liquorice FL mean score / Overall Sweetness Fl. mean score / Body/ thickness Mf. mean score: after second and third sip; for Body/ thickness Mf. mean score / Mouth coating Mf. mean score / Mouth drying Mf. mean score / Mouth watering Mf. mean score / Tingling Mf. mean score: mouthfeel
Procedure: (§1) A sensory evaluation of the sample isolated in Example 5 was conducted by a commercial consumer research and sensory analysis company, using a rapid profiling protocol. The sensory profile of the yeast fermented Reb A product was compared to that of a commercially available RebA product by a panel of 9 tasters (8 trained sensory panellists and 1 Evolve employee), over a two hour period. […] Both products were dissolved in Highland Springs bottled mineral water (Highland Spring Group, Blackford, Pertishire, United Kingdom) at 0.0385% w/v, which is approximately equivalent in sweetness to 8% sucrose.
After a break, the panelists were presented one blinded sample of the yeast-derived RebA solution and one blinded sample of the commercial RebA solution. Sample were presented in a balanced order to the panelists. For each blinded sample, panelists carried out the following tasting procedure. Panelists were instructed take one sip of the sample and score the Sweetness Build and Sweetness Onset attributes. A second and third sip of the sample were then taken, and panelists were instructed to score Flavor Attributes and Mouth Feel attribute Body/thickness. Each panelist then took a final sip of the sample and was asked to score Aftertaste and Mouth Sensations at 20 seconds and 120 seconds after the final sip.
All panellist scores were entered into a computer using Compusense® data collection software (Compusense, Guelph, Ontario, Canada). Agreed reference scores were marked on the scales as a guide. A rest period of 5 minutes duration was observed between samples and palate cleansers of Carr's® water crackers (Kellogg's, Battle Creek, Mich.) and Highland Spring bottled mineral water applied during this time.
After one replicate of testing had been completed, panelists discussed differences between products. Panelists thought there were some subtle differences between products but no new flavors, off flavors, or mouth sensations were experienced. It was therefore decided to carry out a second replicate testing of the two Reb A samples using the same vocabulary and different blinding codes. The same tasting procedure was used for the second replicate as that used for the first replicate.
Mean scores were calculated for each attribute and sample over the two replicates (Rep 1 and Rep 2). Table 16 provides the mean scores for each attribute. Scores in bold shown a statistically significant difference between the two RebA samples.

[2] = system: panel of 9 tasters (8 trained sensory panellists and 1 Evolve employee); experiment: Agreed reference intensity scores for the commercial Reb A reference sample (vocabulary determination); assay type: in vivo; conditions: agreed approximate intensity score, 0-100 scale; 0.0385% w/v
Procedure: as §1
An appropriate vocabulary was determined using the commercial Reb A solution as a reference sample. As a starting point, the panel used an attribute vocabulary agreed to for previous sweetener sensory analyses, including sweetness onset time, sweetness build, sweetness, bitterness, etc. Panelists discussed and agreed which of the attributes were present in the reference sample and also agreed on approximate intensity scores on a 0-100 scale for each attribute. Table 15 describes each characteristic that was assessed and how each characteristic was scored for the reference sample.

[3] = first block (20 seconds after final sip)
[4] = second block (120 seconds after final sip)

C=C1C[C@@]23CC[C@H]4[C@@](C)(CCC[C@@]4(C)C(=O)O[C@@H]4O[C@H](CO)[C@@H](O)[C@H](O)[C@H]4O)[C@@H]2CC[C@]1(O[C@@H]1O[C@H](CO)[C@@H](O)[C@H](O[C@@H]2O[C@H](CO)[C@@H](O)[C@H](O)[C@H]2O)[C@H]1O[C@@H]1O[C@H](CO)[C@@H](O)[C@H](O)[C@H]1O)C3 [Commercial RebA, rebaudioside A]
Sweetness build Fl. mean score [1]: 34.5
Sweetness onset Fl. mean score [1]: 5.6
Acid At. mean score [1, 3]: 8.5
Artificial sweetness At. mean score [1, 3]: 40.8
Bitter At. mean score [1, 3]: 22.1
Overall Sweetness At. mean score [1, 3]: 52.8
liquorice At. mean score [1, 3]: 21.1
Acid At. mean score [1, 4]: 8.9
Artificial sweetness At. mean score [1, 4]: 32.6
Bitter At. mean score [1, 4]: 20.6
Overall Sweetness At. mean score [1, 4]: 49.6
liquorice At. mean score [1, 4]: 16.3
Acid Fl. mean score [1]: 10.6
Artificial sweetness Fl. mean score [1]: 54.0
Bitter Fl. mean score [1]: 20.7
Liquorice FL mean score [1]: 18.0
Overall Sweetness Fl. mean score [1]: 61.7
Body/ thickness Mf. mean score [1]: 39.4
Mouth coating Mf. mean score [1, 3]: 27.4
Mouth drying Mf. mean score [1, 3]: 40.1
Mouth watering Mf. mean score [1, 3]: 10.9
Tingling Mf. mean score [1, 3]: 13.0
Mouth coating Mf. mean score [1, 4]: 26.3
Mouth drying Mf. mean score [1, 4]: 42.7
Mouth watering Mf. mean score [1, 4]: 14.7
Tingling Mf. mean score [1, 4]: 12.9
sweetness build score compared with the yeast derived RebA sample ([1]; time to peak in sweetness intensity, 95% confidence level): significantly longer
Acidic (Flavor/Aftertaste) Score after 3 d sip (20 sec) [2]: 10
Acidic (Flavor/Aftertaste) Score after 3 d sip (2 min) [2]: 10
Acidic (Flavor/Aftertaste) Score after 3 d sip (immediate) [2]: 10
Artificial sweetness (Flavor/Aftertaste) Score after 3 d sip (20 sec) [2]: 35
Artificial sweetness (Flavor/Aftertaste) Score after 3 d sip (2 min) [2]: 20
Artificial sweetness (Flavor/Aftertaste) Score after 3 d sip (immediate) [2]: 55
Bitter (Flavor/Aftertaste) Score after 3 d sip (20 sec) [2]: 20
Bitter (Flavor/Aftertaste) Score after 3 d sip (2 min) [2]: 20
Bitter (Flavor/Aftertaste) Score after 3 d sip (immediate) [2]: 10
Body/thickness (Mouthfeel) Score after 3 d sip (immediate) [2]: 40
Liquorice (Flavor/Aftertaste) Score after 3 d sip (20 sec) [2]: 35
Liquorice (Flavor/Aftertaste) Score after 3 d sip (2 min) [2]: 30
Liquorice (Flavor/Aftertaste) Score after 3 d sip (immediate) [2]: 30
Mouth coating (Mouthfeel) Score after 3 d sip (20 sec) [2]: 30
Mouth coating (Mouthfeel) Score after 3 d sip (2 min) [2]: 30
Mouth drying (Mouthfeel) Score after 3 d sip (20 sec) [2]: 35
Mouth drying (Mouthfeel) Score after 3 d sip (2 min) [2]: 35
Mouth watering (Mouthfeel) Score after 3 d sip (20 sec) [2]: 0
Mouth watering (Mouthfeel) Score after 3 d sip (2 min) [2]: 20
Overall Sweetness (Flavor/Aftertaste) Score after 3 d sip (20 sec) [2]: 50
Overall Sweetness (Flavor/Aftertaste) Score after 3 d sip (2 min) [2]: 50
Overall Sweetness (Flavor/Aftertaste) Score after 3 d sip (immediate) [2]: 70
Sweetness build (Flavor) Score after 1st sip [2]: 30
Sweetness onset (Flavor) Score after 1st sip [2]: 5
Tingling (Mouthfeel) Score after 3 d sip (20 sec) [2]: 10
Tingling (Mouthfeel) Score after 3 d sip (2 min) [2]: 5

C=C1C[C@@]23CC[C@H]4[C@@](C)(CCC[C@@]4(C)C(=O)O[C@@H]4O[C@H](CO)[C@@H](O)[C@H](O)[C@H]4O)[C@@H]2CC[C@]1(O[C@@H]1O[C@H](CO)[C@@H](O)[C@H](O[C@@H]2O[C@H](CO)[C@@H](O)[C@H](O)[C@H]2O)[C@H]1O[C@@H]1O[C@H](CO)[C@@H](O)[C@H](O)[C@H]1O)C3 [Yeast derived Reb A, rebaudioside A]
Sweetness build Fl. mean score [1]: 30.2
Sweetness onset Fl. mean score [1]: 5.5
Acid At. mean score [1, 3]: 6.9
Artificial sweetness At. mean score [1, 3]: 33.8
Bitter At. mean score [1, 3]: 17.2
Overall Sweetness At. mean score [1, 3]: 49.6
liquorice At. mean score [1, 3]: 19.2
Acid At. mean score [1, 4]: 5.5
Artificial sweetness At. mean score [1, 4]: 30.0
Bitter At. mean score [1, 4]: 18.1
Overall Sweetness At. mean score [1, 4]: 46.2
liquorice At. mean score [1, 4]: 16.2
artificial sweetness score compared with the commercial RebA sample ([1]; at 20 seconds): significantly less
bitter score compared with the commercial RebA sample ([1]; at 20 seconds, not statistically significantly different): lower
Acid Fl. mean score [1]: 8.3
Artificial sweetness Fl. mean score [1]: 41.8
Bitter Fl. mean score [1]: 11.8
Liquorice FL mean score [1]: 17.2
Overall Sweetness Fl. mean score [1]: 58.5
Body/ thickness Mf. mean score [1]: 37.1
Mouth coating Mf. mean score [1, 3]: 28.9
Mouth drying Mf. mean score [1, 3]: 40.8
Mouth watering Mf. mean score [1, 3]: 10.1
Tingling Mf. mean score [1, 3]: 9.8
Mouth coating Mf. mean score [1, 4]: 24.7
Mouth drying Mf. mean score [1, 4]: 39.8
Mouth watering Mf. mean score [1, 4]: 15.7
Tingling Mf. mean score [1, 4]: 8.8
off flavors ([1]; panellist reports): no reports of off flavors
